Read-outs that look alike come from different tables or passages of the source.
Tests used:
[1] = tested on: biosynthetic pathway of cholesterol; assay: inhibitory effect in biosynthetic pathway of cholesterol; assay type: biochemical; settings: 10^-4 M; rat liver microsomes and soluble fraction; 90 min, 100 µM
Procedure: Test for determining inhibitory effect in biosynthetic pathway of cholesterol
Each one of the test compounds was added to rat liver microsomes fraction (containing 0.2 mg of protein) and soluble fraction (containing 2 mg of protein), then the volume of the mixture was adjusted to 100 microliters by adding 0.1 M-potassium phosphate buffer solution (pH 7.4), then this mixture was incubated at 37° C. for 10 minutes.
After the incubation, the reaction was started by adding 200 microliters of a solution containing 1 mM ATP, 10 mM glucose-1-phosphate, 6 mM glutathione, 6 mM MgCl2, […], 0.25 mM […], 0.25 mM NADP, and 1 mM [1-^14 C] sodium acetate (3.0 mCi/mM).
The whole mixture was incubated at 37° C. for 90 minutes, then the reaction was terminated by adding […] of 15%-KOH (a 95% ethanol solution), next 2 mg of cholesterol was added thereto, saponified at 75° C. for 1 hour, and cholesterol was extracted with petroleum ether, the extract was concentrated to dryness. To the residue thus obtained was added with 2.5 ml of a mixture of acetone-diethyl ether (1:1) and 2.5 ml of 1%-digitonin (a 50% ethanol solution), then this solution was allowed to stand for 1 hour in cooling condition by using ice-water to precipitate cholesterol. The precipitate was washed with acetone, a mixture of acetonediethyl ether (1:1) and diethyl ether in this order, then the radioactivity of the residue was measured by using a liquid scintillation counter.
Control test was also conducted by the procedures similar to those mentioned above in the test group, except that each one of the test compounds was not used.
Inhibitory effect in biosynthetic pathway of cholesterol performed by each one of the test compounds was calculated, in terms of inhibitory ratio (%), from the formula on the basis of the radioactivity of the control group as follows: [formula] (wherein
[c] is a radioactivity of the control group, and
[d] is a radio activity of the test group).

[2] = tested on: Triton WR-1339-induced hyperlipidemia in rat; assay: antilipotropic effect in Triton WR-1339-induced hyperlipidemia in rat; assay type: in vivo, Wistar-strain male rats; settings: 50 mg/kg oral, vs control
Text: Wistar-strain male rats of 5-9 week age were used as test animals. One test group consisting of six (6) rats.
[a] is a determined value obtained from the control group, and
[b] is a determined value obtained from the test group).

[3] = 24 hours after Triton WR-1339 (400 mg/kg, tail vein), read-out: lowering ratio of serum triglycerides, 24 hours after Triton WR-1339
[4] = 24 hours after Triton WR-1339 (400 mg/kg, tail vein), read-out: lowering ratio of total serum cholesterol, 24 hours after Triton WR-1339
[5] = 48 hours after Triton WR-1339 (400 mg/kg, tail vein), read-out: lowering ratio of serum triglycerides, 48 hours after Triton WR-1339
[6] = 48 hours after Triton WR-1339 (400 mg/kg, tail vein), read-out: lowering ratio of total serum cholesterol, 48 hours after Triton WR-1339

SMILES | Inhibitory ratio of cholesterol biosynthesis [1] [%] | inhibition in vivo at 50 mg/kg [2, 3] [%] | inhibition in vivo at 50 mg/kg [2, 4] [%] | inhibition in vivo at 50 mg/kg [2, 5] [%] | inhibition in vivo at 50 mg/kg [2, 6] [%]
CCOP(=O)(Cc1ccc(C(=O)N(Cc2ccc(OC)cc2)c2ccccc2)cc1)OCC [compound 38] | 85.2 |  |  |  | 
CCOP(=O)(Cc1ccc(C(=O)N(Cc2ccc(Cl)cc2)c2ccc(Cl)c(Cl)c2)cc1)OCC [compound 17] |  | 56.8 | 27.8 | 94.1 | 64.4
CCOP(=O)(Cc1ccc(C(=O)N(Cc2ccccc2)c2ccc(OC)c(OC)c2)cc1)OCC [compound 53] | 59.0 |  |  |  | 
CCOP(=O)(Cc1ccc(C(=O)N2CCN(c3cccc(C(F)(F)F)c3)CC2)cc1)OCC [compound 60] | 24.9 |  |  |  | 
CCOP(=O)(Cc1ccc(C(=O)N(Cc2ccccc2)c2ccc(OC)cc2)cc1)OCC [compound 48] | 63.7 |  |  |  | 
CCOP(=O)(Cc1ccc(C(=O)N(Cc2ccccc2)c2ccccc2F)cc1)OCC [compound 47] | 67.2 |  |  |  | 
CCOP(=O)(Cc1ccc(C(=O)NCCc2ccc(OC)c(OC)c2)cc1)OCC [compound 30] | 28.9 |  |  |  | 
CCOP(=O)(Cc1ccc(C(=O)N(Cc2ccccc2)Cc2ccccc2)cc1)OCC [compound 54] | 69.7 |  |  |  | 
CCOP(=O)(OCC)C(C)c1ccc(C(=O)N(CCc2ccccc2)Cc2ccccc2)cc1 (stereo not drawn) [compound 62] | 80.2 |  |  |  | 
CCCCCCCCN(C(=O)c1ccc(CP(=O)(OCC)OCC)cc1)c1ccccc1 [compound 33] | 89.6 |  |  |  | 
CCOP(=O)(Cc1ccc(C(=O)Nc2ccc(C#N)cc2)cc1)OCC [compound 19] |  | 90.5 | 60.6 | 94.7 | 63.6
CCOP(=O)(Cc1ccc(C(=O)N(Cc2ccccc2)c2ccc(C)cc2)cc1)OCC [compound 46] | 59.1 |  |  |  | 
CCOP(=O)(Cc1cccc(C(=O)N(c2ccccc2)c2ccc(C(=O)OC)cc2)c1)OCC [compound 24] | 21.6 |  |  |  | 
CCCCCCCCC(c1ccc(C(=O)N(CCCCCCCC)c2ccccc2)cc1)P(=O)(OCC)OCC (stereo not drawn) [compound 34] | 85.2 |  |  |  | 
CCOP(=O)(Cc1ccc(C(=O)Nc2ccccc2Br)cc1)OCC [compound 55] | 57.1 |  |  |  | 
CCOP(=O)(Cc1ccc(C(=O)N2CCN(c3ccccc3C)CC2)cc1)OCC [compound 57] | 41.9 |  |  |  | 
CCOP(=O)(Cc1ccc(C(=O)N(Cc2cccc(C(F)(F)F)c2)c2ccccc2)cc1)OCC [compound 40] | 91.6 |  |  |  | 
CCOP(=O)(Cc1ccc(C(=O)N(Cc2ccccc2)c2ccc(C(F)(F)F)cc2)cc1)OCC [compound 12] |  | 60.4 | 36.9 | 83.9 | 
CCOP(=O)(Cc1ccc(C(=O)N(Cc2ccc(C)cc2)c2ccccc2)cc1)OCC [compound 37] | 82.8 |  |  |  | 
CCOP(=O)(Cc1ccc(C(=O)N(Cc2ccccc2)c2ccc(C#N)cc2)cc1)OCC [compound 49] | 75.2 |  |  |  | 
CCOP(=O)(Cc1ccc(C(=O)N2CCN(c3ccc(OC)cc3)CC2)cc1)OCC [compound 59] | 55.1 |  |  |  | 
CCOP(=O)(Cc1ccc(C(=S)N(C)c2ccccc2)cc1)OCC [compound 67] | 32.5 |  |  |  | 

SMILES | Inhibitory ratio of cholesterol biosynthesis [1] [%] | inhibition in vivo at 50 mg/kg [2, 3] [%] | inhibition in vivo at 50 mg/kg [2, 4] [%] | inhibition in vivo at 50 mg/kg [2, 5] [%] | inhibition in vivo at 50 mg/kg [2, 6] [%]
CCOP(=O)(Cc1ccc(C(=O)N(C)Cc2ccccc2)cc1)OCC [compound 43] | 23.8 |  |  |  | 
CCOP(=O)(Cc1ccc(C(=S)N(Cc2ccccc2)Cc2ccccc2)cc1)OCC [compound 69] | 85.3 |  |  |  | 
CCOP(=O)(Cc1ccc(C(=O)N(c2ccc(Cl)cc2)C2CCCC2)cc1)OCC [compound 15] |  | 23 | 9.8 | 55.8 | 22.6
CCOP(=O)(Cc1ccccc1C(=O)N(Cc1ccc(C#N)cc1)c1ccc(OC)cc1)OCC [compound 25] | 20.1 |  |  |  | 
CCOP(=O)(Cc1ccc(C(=O)Nc2ccc(C(F)(F)F)cc2)cc1)OCC [compound 13] |  | 73.9 | 33.7 | 95.4 | 64.4
CCOP(=O)(Cc1ccc(C(=O)Nc2ccc([N+](=O)[O-])cc2)cc1)OCC [compound 18] |  | 54.4 | 32.7 | 74.9 | 37.5
CCOP(=O)(Cc1ccc(C(=O)N(Cc2ccccc2)C2CCCCC2)cc1)OCC [compound 45] | 76.9 |  |  |  | 
CCOP(=O)(Cc1ccc(C(=O)Nc2ccccc2O)cc1)OCC [compound 28] | 22.1 |  |  |  | 
CCOP(=O)(Cc1ccc(C(=O)Nc2ccc(OC)cc2)cc1)OCC [compound 23] |  | 25.5 | 17.3 | 27.6 | 32.5
CCOP(=O)(Cc1ccc(C(=O)N2CCN(C)CC2)cc1)OCC [compound 56] | 23.6 |  |  |  | 
CCOP(=O)(Cc1ccc(C(=O)N(Cc2ccc(Cl)cc2)c2ccc(Cl)cc2)cc1)OCC [compound 21] |  | 47.9 | 15.9 | 89.1 | 52.3
CCOP(=O)(Cc1ccc(C(=O)Nc2ccc(Cl)c(C(F)(F)F)c2)cc1)OCC [compound 9] |  | 11.3 | 11.7 | 68.4 | 42.3
CCOP(=O)(Cc1ccc(C(=O)N(C)c2ccc(Cl)cc2)cc1)OCC [compound 14] |  | 46 | 29.3 |  | 49.4
CCOP(=O)(Cc1ccc(C(=O)N(CCc2ccccc2)c2ccccc2)cc1)OCC [compound 42] | 86.7 |  |  |  | 
CCOP(=O)(Cc1ccc(C(=O)N(Cc2ccccc2)C(C)C)cc1)OCC [compound 44] | 46.2 |  |  |  | 
CCOP(=O)(OCC)C(Cc1ccccc1)c1ccc(C(=O)N(Cc2ccccc2)c2cccc(C(F)(F)F)c2)cc1 (stereo not drawn) [compound 51] | 70.4 |  |  |  | 
CCOP(=O)(Cc1ccc(C(=O)Nc2ccc(F)cc2)cc1)OCC [compound 20] |  | 57.3 | 27 | 90.5 | 55.1
CCOP(=O)(Cc1ccc(C(=O)N(Cc2ccc([N+](=O)[O-])cc2)c2ccccc2)cc1)OCC [compound 39] | 74.6 |  |  |  | 
CCOP(=O)(Cc1ccc(C(=O)Nc2ccc(I)cc2)cc1)OCC [compound 16] |  | 94.1 | 64 | 95.3 | 75.1
CCOP(=O)(Cc1ccc(C(=O)N2CCN(Cc3ccccc3)CC2)cc1)OCC [compound 61] | 58.3 |  |  |  | 
CCOP(=O)(Cc1ccc(C(=S)N(C)Cc2ccccc2)cc1)OCC [compound 68] | 57.2 |  |  |  | 
CCOP(=O)(Cc1ccc(C(=O)N(c2ccccc2)C2CCCCC2)cc1)OCC [compound 35] | 39.2 |  |  |  | 

From patent US5081112A, “Method for treating hyperlipidemia” (Otsuka Pharmaceutical Factory Inc., priority 1986, dated 1992)
